According to patent US7531569B2, “Process for preparing (3-oxo-2,3-dihydro-1H-isoindol-1-yl) acetylguanidine derivatives” (sanofi-aventis Deutschland GmbH, priority 2003, dated 2009):

Experiments:
[1] = Stated solid-state and physicochemical properties of the salt (no method described); conditions: qualitative statement, no conditions given
[2] = molecular target: T1, human NHE-1 (Homo sapiens, UniProt P19634); experiment: FLIPR assay of pHi recovery in transfected LAP-1 cell lines expressing human NHE-1; type: cell-based; conditions: transfected cells expressing human NHE-1, read-out: NHE1 inhibition IC50
T1 construct: expressed in transfected cells; host or cells: LAP-1 (parental line without endogenous NHE activity), G418 selection
T1 sequence (P19634 whole entry): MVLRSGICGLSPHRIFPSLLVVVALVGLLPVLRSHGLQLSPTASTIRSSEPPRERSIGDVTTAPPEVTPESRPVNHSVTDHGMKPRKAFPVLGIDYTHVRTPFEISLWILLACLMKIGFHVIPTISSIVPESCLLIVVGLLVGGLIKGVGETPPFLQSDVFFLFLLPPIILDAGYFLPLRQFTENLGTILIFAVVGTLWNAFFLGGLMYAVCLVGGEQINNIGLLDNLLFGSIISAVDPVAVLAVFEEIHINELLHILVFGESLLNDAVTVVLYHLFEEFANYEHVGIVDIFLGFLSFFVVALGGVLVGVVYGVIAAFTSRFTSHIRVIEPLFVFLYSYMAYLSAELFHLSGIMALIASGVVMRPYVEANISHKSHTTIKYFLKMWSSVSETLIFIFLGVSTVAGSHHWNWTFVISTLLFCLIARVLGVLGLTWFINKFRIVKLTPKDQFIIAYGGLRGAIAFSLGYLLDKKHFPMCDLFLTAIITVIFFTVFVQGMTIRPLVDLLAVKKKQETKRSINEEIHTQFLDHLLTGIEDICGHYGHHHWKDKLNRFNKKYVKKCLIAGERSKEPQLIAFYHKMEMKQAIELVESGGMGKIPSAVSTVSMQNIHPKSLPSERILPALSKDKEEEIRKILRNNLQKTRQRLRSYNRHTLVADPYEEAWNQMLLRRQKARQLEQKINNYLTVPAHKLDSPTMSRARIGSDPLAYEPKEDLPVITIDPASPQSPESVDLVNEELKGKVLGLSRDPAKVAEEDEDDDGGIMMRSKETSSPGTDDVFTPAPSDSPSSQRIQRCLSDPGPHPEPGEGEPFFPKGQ
Method: The inhibitory concentration IC50 for NHE-1 inhibition was determined as follows:
The NHE-1 inhibition IC50 was determined in an FLIPR assay by measurement of the recovery in pHi in transfected cell lines which express human NHE-1.
The assay was carried out in an FLIPR (fluorescent imaging plate reader) with black-walled 96-well microtiter plates having clear bases.
The growth medium for the transfected cells (Iscove+10% fetal calf serum) additionally contained G418 as a selection antibiotic in order to ensure the presence of the transfected sequences.
The actual assay started with the removal of the growth medium and addition of 100 μl of loading buffer per well (5 μM BCECF-AM [2′,7′-bis(carboxyethyl)-5- (and -6-)carboxyfluorescein, acetoxymethyl ester] in 20 mM NH4Cl, 115 mM choline chloride, 1 mM MgCl2, 1 mM CaCl2, 5 mM KCl, 20 mM HEPES, 5 mM glucose; pH 7.4 [adjusted with KOH]). The cells were then incubated at 37° C. for 20 minutes. This incubation led to loading of the cells with the fluorescent dye whose fluorescence intensity depends on pHi, and with NH4Cl which makes the cells slightly alkaline.
The nonfluorescent dye precursor BCECF-AM is, as the ester, membrane-permeable. Inside the cell, esterases release the actual BCECF dye which is membrane-impermeable. […]

hygroscopicity [1]	solubility [1]	tendency to racemization [1]	IC50 [2] [nM]	Structure (SMILES)
particularly low hygroscopicity	good solubility	low tendency to racemization		NC(N)=NC(=O)C[C@H]1c2cc(C(F)(F)F)ccc2C(=O)N1CC(F)(F)F.O=C(O)/C=C/C(=O)O [(S)-N-{2-[3-Oxo-2-(2,2,2-trifluoroethyl)-6-trifluoromethyl-2,3-dihydro-1H-isoindol-1-yl]-acetyl}guanidine hydrogenfumarate hydrate]
			0.3	NC(N)=NC(=O)C[C@H]1c2cc(C(F)(F)F)ccc2C(=O)N1CC(F)(F)F [(S)-N-{2-[3-Oxo-2-(2,2,2-trifluoroethyl)-6-trifluoromethyl-2,3-dihydro-1H-isoindol-1-yl]-acetyl}guanidine]
